# Assay: saturation vapor pressure
# Format: physicochemical
row,SMILES,Saturation vapor pressure [hPa]
1,"COCC(C)O (centres unmarked) [PGME, propylene glycol methyl ether]",8.71
2,"CCOCC(C)O (centres unmarked) [PGEE, propylene glycol ethyl ether]",9.4
3,"CCCOC(C)COC(C)CO (centres unmarked) [DPGPE, dipropylene glycol-n-propyl ether]",0.03

# Other lines, results leading:
row,Saturation vapor pressure [hPa],SMILES
1,2.21,"CCCOCC(C)O (centres unmarked) [PGPE, propylene glycol-n-propyl ether]"
2,5,"COCC(C)OC(C)=O (centres unmarked) [PGMEA, propylene glycol methyl ether acetate]"
